Experiment [1] concerns SKOV-3. The experiment is described as follows: Cytotoxicity in SKOV-3 ovarian cancer cells. The experiment is classed as cell-based. Particulars: SKOV-3 ovarian cancer cell line; read-out: IC50 in Human Cancer Cell Lines. As to the method:
(§1) MDA-MB-435S.luc cells were grown in Leibovitz's L 15 medium, 10% fetal bovine serum, 0.01 mg/ml bovine insulin, 100 IU/ml penicillin, 100 microg/ml streptomycin. The cells were cultured in tight closed flasks. The incubations were conducted using 96 well plates at 10,000 cells per well. Cells were typically seeded into 96 well plates and media was replaced after 48 hours of incubation. Each assay was conducted at increasing concentrations of 0, 0.001, 0.01, 0.05, 0.1, 0.5, 1, 2, 5, 10 and 100 micromolar doses of lytic peptide-binding domain conjugate. Each lytic peptide-binding domain conjugate provided in lyophilized form and was freshly dissolved in saline and added to cells. The duration of incubation was typically 24 h, and cell viability assays were conducted using formazan conversion assays (MTT assay). Controls contained saline or 0.1% triton as reference for 0 and 100% cell death, respectively.
(§2) To ascertain the IC50 of various fusion constructs on different human cancer cell lines compared to cisplatinum, IC50 of fusion constructs were evaluated as in Table 3.

Experiment [2] has as its system ID8 ovarian cancer cells. The experiment is described as follows: Cytokine and chemokine secretion by ID8 cells (array, RT-PCR, ELISA). The experiment is classed as cell-based, murine. As to the method: Cytokine Array—Supernatant from cultured cells was stored at −20° C. for batch analyses to measure cytokines. The mouse cytokine array (R&D Systems, Inc.) was purchased and used to detect the secretion of 111 cytokines in the experiments groups. These Proteome Profiler Arrays were performed according to the manufacturer's protocol.
The effect of EP-100 on cytokines and chemokines was analyzed using a proteome profiler murine cytokine array in the CD8^+ T cell activation in ID8 ovarian cancer cells. […] LIF and CXCL10 secretion were decreased after treatment with EP-100 for 4 hours. LDL receptor secretion was increased by EP-100 at 2 hours and 12 hours, while IL1α, CCL20, VEGF, and IL33 were secreted after EP-100 treatment (FIG. 19 B). Among the cytokines, IL33 inhibited tumor growth and modified the tumor microenvironment. Using RT-PCR and ELISA the induction of IL33 through EP-100 was analyzed. IL33 mRNA expression was increased in 30 minutes after EP-100 treatment, and secretion was increased after 2 hours of EP-100 treatment, and this effect continued through 12 hours (FIGS. 19C and 19D). […] To determine the IL33 role in the tumor microenvironment, we tested the IL33 effect on T cell differentiation in vitro. We isolated naïve CD4^+ T cells from mouse […], and further cultured for 5 days in CD3 and CD28, and mouse IL-2 containing media to differentiated CD8^+ T cell. LHRH-R mRNA expression and EP-100-induced cytoic effect was lower in both naïve T cells and CD8^+ T cells than in ID8 cells (FIGS. 20A and 20B).
A general note: An ELISA detects its analyte on a solid surface through an enzyme-linked reagent.

For experiment [3], the system named is AN3-CA. The experiment is described as follows: Cytotoxicity in AN3-CA endometrial cancer cells. Particulars: AN3-CA endometrial cancer cell line; read-out: IC50 in Human Cancer Cell Lines. The experiment is classed as cell-based. As to the method:
as §1, §2

Experiment [4] relates to ID8 murine ovarian carcinoma. Kind of experiment: Orthotopic ID8 murine ovarian carcinoma syngeneic model. The experiment is classed as in vivo, C57BL/6 mice. As to the method:
Ovarian Cancer Orthotopic Syngeneic Mouse model—Eight-to 12-week-old female C57BL/6 mice were purchased from Taconic Farms, ID8 or IG10 cells at a concentration off 2×10^6 cells/0.2 mL per mouse were injected into the intraperitoneal cavity of C57BL/6. All mouse studies were approved by the Institutional Animal Care and Use Committee and were cared for in accordance with guidelines set forth by the American Association for Accreditation of Laboratory Animals. After cancer cell injection, mice were randomly divided into four treatment groups: 1) untreated control, 2) PD-L1 antibody (200 μg/kg intraperitoneally twice a week), 3) EP-100 (0.2 mg/kg intravenously twice a week) and 4) PD-L1 antibody plus EP-100. Treatment was initiated ten days after cancer cell injection into the intraperitoneal cavity.
C57BL/6 female mice were injected orthotopically with luciferase labeled ID8 (ID8-L) murine ovarian cancer cell line (1×10^6 cells). Mice were monitored for tumor take using a luminescent imaging system. Treatments started on day 7 after tumor cell injection and continued on days 9, 12, 16, 19, 22, and 26 (FIG. 17A). […] Each treatment and control group consisted of 10 mice. At necropsy on day 28, ascites fluids were removed and measured, and tumors were removed and weighed.
Significance between treatment groups was assessed using Wilcoxon signed Rank test analysis and ANOVA.

In experiment [5] the test system is IG10. The experiment is described as follows: Cytotoxicity in IG10 murine ovarian cancer cells (24 h). Particulars: IG10, 24 h; read-out: In vitro activity (IC50). The experiment is classed as cell-based. As to the method:
(§3) Murine ovarian cancer cell lines (ID8, IG10, IF5, and 2Cl2) were grown in RPMI 1640 media with 10% Fetal Bovine Serum. Cells were typically seeded (3000 cells per well) into 96 well plates and media was replaced after 48 hours of incubation. […] Phor18-LHRH was provided in lyophilized form was dissolved in saline and added to cells. The duration of incubation was 24 h at 37° C. Cell viability was assessed after 24 hours using a luminometric assays (Promega, CellTiter-0Glo 2.0, G9243). Controls contained saline or 0.1% triton as reference for 0 and 100% cell death, respectively.
(§4) Data were processed and analyzed using GraphPad Prism version 7.00 for Windows (GraphPad Software, San Diego California). Statistical analysis for significance was determined by a two-tailed Student's T-test. Each study was conducted to achieve an […] of at least 6.
(§5) In vitro activities were expressed as IC50 values for each cell line, time point and compound tested that were calculated using the Hill equation (Graph Pad Prizm software).

For experiment [6], the system named is 2C12. The experiment is described as follows: Cytotoxicity in 2C12 murine ovarian cancer cells (24 h). The experiment is classed as cell-based. Particulars: 2C12, 24 h; read-out: In vitro activity (IC50). As to the method:
as §3, §4, §5

Experiment [7] deals with OVCAR-3. Kind of experiment: Cytotoxicity in OVCAR-3 ovarian cancer cells. Particulars: OVCAR-3 ovarian cancer cell line; read-out: IC50 in Human Cancer Cell Lines. The experiment is classed as cell-based. The method, then:
as §1, §2

Experiment [8] has as its system MDA-MB-231. The experiment is described as follows: Cytotoxicity in MDA-MB-231 breast cancer cells. The experiment is classed as cell-based. The conditions noted are these: MDA-MB-231 breast cancer cell line; read-out: IC50 in Human Cancer Cell Lines. The method, then:
as §1, §2

Consider “KFAKFAKKFAKFAKKFAKQHWSYGLRPG [Phor18-LHRH]”, for which the IC50 in experiment [1] worked out at 11.8 ± 0.3 µM; in experiment [3], 3.8 ± 0.08 µM; in experiment [5], 1.03 µM; in experiment [6], 1.02 µM; in experiment [7], 3 µM; in experiment [8], 5.5 ± 1.2 µM. Also, the “time to increased IL33 secretion” value in experiment [2] (ID8 cells, ELISA, continued through 12 hours) was 2 h. The “time to increased IL33 mRNA expression” value in experiment [2] (ID8 cells, RT-PCR) was 30 min. In experiment [2] (ID8 cells, LIF, CXCL10, IL1α, CCL20, VEGF, IL33, LDL receptor), the “secretion of cytokines and chemokines (array)” value is recorded as “increased secretion of various molecules”. In experiment [2] (in vitro, FIG. 19D), the IL33 secretion result was “IL33 secretion was increased by EP-100”. Besides, the reduction of ascites in experiment [4] (ID8) came out at 1.5 fold. In addition, the “reduction of live tumor size” value in experiment [4] (ID8) was 2.1 fold. Further, in experiment [4] (ID8), the “reduction of tumor weights” value came out at 3 fold. Further, in experiment [4] (ID8), the “relative reduction of ascites volumes” value is 35.5%. Also, the “luminescence counts of tumor at the end of the study” value in experiment [4] (ID8-luciferase, mean±SD, start 9.2±1.2×10^4) is listed as 88.6±21.5 ×10^4. In addition, the “tumor weights at necropsy” value in experiment [4] (ID8, Mean±SEM, N=10, controls 1.06±0.08 g) came to 0.49 ± 0.07 g. The same sequence registered an ascites volumes in experiment [4] (ID8, Mean±SEM, N=10, vehicle 12.26±0.6 ml) of 8.0 ± 0.7 mL.

In general, IC50 refers to the concentration needed to halve the response being measured.

The record behind these values is patent US20240228542A1, “LYTIC DOMAIN FUSION CONSTRUCTS, CHECKPOINT INHIBITORS, AND METHODS OF MAKING AND USING SAME” (A28 Therapeutics Inc., priority 2020, published 2024).
